Read-outs that look alike come from different tables or passages of the source.
How the values were obtained:
Test in all cases: Dundee kinase screen re-test (standard format and 4 hour pre-incubation)
Assay type in all cases: biochemical
[1] = target: T1, ASK1 (Homo sapiens, UniProt Q99683); details: ASK1, 0.5µM
T1 sequence (Q99683 1-1374): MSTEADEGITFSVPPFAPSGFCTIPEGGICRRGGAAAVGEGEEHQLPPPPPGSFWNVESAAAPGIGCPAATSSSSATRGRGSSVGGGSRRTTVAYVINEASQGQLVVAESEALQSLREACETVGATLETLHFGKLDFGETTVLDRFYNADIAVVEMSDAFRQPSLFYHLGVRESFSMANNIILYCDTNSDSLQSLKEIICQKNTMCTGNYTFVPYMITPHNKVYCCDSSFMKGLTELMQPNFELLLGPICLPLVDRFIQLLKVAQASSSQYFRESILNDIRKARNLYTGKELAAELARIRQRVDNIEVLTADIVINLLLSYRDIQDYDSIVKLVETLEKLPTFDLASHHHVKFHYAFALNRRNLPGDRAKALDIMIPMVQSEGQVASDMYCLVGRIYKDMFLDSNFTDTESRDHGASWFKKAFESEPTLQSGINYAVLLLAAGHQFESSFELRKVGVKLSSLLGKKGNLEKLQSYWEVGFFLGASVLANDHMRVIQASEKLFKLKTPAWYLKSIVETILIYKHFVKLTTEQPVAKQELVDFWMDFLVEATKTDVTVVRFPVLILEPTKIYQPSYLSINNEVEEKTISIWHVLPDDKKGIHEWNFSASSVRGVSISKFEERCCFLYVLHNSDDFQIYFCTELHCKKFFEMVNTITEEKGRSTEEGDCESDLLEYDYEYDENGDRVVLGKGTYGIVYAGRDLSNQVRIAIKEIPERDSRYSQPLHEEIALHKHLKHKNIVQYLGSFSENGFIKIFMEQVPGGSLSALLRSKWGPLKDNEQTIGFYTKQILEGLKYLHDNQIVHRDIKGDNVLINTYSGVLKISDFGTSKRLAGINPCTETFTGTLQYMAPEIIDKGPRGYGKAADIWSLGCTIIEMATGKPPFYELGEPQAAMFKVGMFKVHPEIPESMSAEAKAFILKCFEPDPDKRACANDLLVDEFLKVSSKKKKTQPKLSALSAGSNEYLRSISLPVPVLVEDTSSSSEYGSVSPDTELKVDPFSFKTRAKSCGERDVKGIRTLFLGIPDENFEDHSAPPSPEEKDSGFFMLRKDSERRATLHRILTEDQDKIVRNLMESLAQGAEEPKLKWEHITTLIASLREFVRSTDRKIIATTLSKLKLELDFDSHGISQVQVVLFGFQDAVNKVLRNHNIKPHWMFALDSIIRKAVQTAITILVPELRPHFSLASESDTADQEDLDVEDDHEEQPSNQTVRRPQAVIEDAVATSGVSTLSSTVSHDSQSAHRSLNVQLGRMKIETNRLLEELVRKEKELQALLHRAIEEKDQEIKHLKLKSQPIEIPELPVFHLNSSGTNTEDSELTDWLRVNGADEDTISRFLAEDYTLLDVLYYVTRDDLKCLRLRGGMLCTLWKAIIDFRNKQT
Description: (§1) Prior to determining its cellular activity, we carried out a screen to assess its selectivity against a panel of 131 protein kinases under conditions that would not distinguish between a reversible or irreversible mode of action. […] These 13 kinases and 29 additional kinases, selected for their known sensitivity to other inhibitors within the purine series, were then tested in a modified screening format in which the assay was repeated following a 4-hr pre-incubation (Table S3B). […] However, conformational flexibility around the active site may promote such an interaction with a residue from another part of the structure ([Martin et al., 2012]).
(§2) Table S3, Related to Figure 4. NCL-0006300 protein kinase selectivity. […]
(§3) Dundee protein kinase screen (Bain et al., 2007). […]
(§4) (B) Selected kinases were re-tested in the Dundee kinase screen against NU6300 at a single concentration of 0.5 µM both in the standard assay format and following a 4 hour pre-incubation in the presence of NU6300. Kinases which have very low activity after the 4 hour incubation so that results might not be wholly reliable are boxed in salmon. Kinases where the activity after a 4 hour pre-incubation is < 50% that in the standard assay format are highlighted in red.

[2] = target: T2, MARK4 (Homo sapiens, UniProt Q96L34); details: MARK4, 0.5µM
T2 sequence (Q96L34 1-752): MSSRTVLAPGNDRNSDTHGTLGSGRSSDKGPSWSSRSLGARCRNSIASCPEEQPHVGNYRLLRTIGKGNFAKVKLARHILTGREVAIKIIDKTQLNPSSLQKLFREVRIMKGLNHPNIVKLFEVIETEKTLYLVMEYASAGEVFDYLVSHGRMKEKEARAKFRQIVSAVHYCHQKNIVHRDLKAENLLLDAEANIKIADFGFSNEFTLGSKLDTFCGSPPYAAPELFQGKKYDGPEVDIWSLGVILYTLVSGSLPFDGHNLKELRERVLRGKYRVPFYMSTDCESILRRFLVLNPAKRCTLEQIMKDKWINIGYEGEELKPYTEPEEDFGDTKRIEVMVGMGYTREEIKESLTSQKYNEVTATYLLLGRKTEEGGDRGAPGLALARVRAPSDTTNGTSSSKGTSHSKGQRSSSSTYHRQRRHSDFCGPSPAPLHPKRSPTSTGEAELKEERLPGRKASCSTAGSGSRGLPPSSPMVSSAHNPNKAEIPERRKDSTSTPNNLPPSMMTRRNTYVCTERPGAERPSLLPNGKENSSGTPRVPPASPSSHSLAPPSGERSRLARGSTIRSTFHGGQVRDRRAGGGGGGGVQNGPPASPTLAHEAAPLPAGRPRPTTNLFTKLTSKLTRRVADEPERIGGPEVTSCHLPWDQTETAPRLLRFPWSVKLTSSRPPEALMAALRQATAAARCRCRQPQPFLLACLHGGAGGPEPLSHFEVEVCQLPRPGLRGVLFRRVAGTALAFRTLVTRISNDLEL
Description: as §1, §2, §3, §4

[3] = target: PAK4 (Homo sapiens, UniProt O96013); details: PAK4, 0.5µM
Sequence of PAK4 (O96013 whole entry): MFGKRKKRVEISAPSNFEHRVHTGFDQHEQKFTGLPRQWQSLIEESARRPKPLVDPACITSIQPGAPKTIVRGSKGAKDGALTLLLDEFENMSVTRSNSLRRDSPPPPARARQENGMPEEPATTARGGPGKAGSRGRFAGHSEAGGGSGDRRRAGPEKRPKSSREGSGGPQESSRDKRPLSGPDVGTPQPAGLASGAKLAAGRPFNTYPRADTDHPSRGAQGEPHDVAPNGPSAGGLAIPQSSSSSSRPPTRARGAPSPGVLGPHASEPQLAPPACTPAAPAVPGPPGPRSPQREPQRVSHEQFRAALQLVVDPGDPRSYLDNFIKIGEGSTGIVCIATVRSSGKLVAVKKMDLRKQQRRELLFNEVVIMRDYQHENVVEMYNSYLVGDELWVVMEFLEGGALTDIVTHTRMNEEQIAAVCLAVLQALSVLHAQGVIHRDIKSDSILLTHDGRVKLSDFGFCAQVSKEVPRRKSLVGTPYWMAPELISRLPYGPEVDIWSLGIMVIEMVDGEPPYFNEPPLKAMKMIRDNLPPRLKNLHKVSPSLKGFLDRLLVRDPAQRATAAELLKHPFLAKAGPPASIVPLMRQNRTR
Description: as §1, §2, §3, §4

[4] = 4hr RT preincubation, read-out: %Remaining activity at 0.5µM NU6300 - 4hr RT preincubation
[5] = usual format, read-out: %Remaining activity at 0.5µM NU6300 - Usual assay format

C=CS(=O)(=O)c1ccc(Nc2nc(OCC3CCCCC3)c3nc[nH]c3n2)cc1 [NU6300, 6-(cyclohexylmethoxy)-N-(4-(vinylsulfonyl)phenyl)-9H-purin-2-amine]
remaining activity at 0.5 µM [1, 4]: 102% | remaining activity at 0.5 µM [1, 5]: 89% | remaining activity at 0.5 µM [2, 4]: 52% | remaining activity at 0.5 µM [2, 5]: 47% | remaining activity at 0.5 µM [3, 4]: 82% | remaining activity at 0.5 µM [3, 5]: 34%

From paper PMC4579270, “Identification and Characterization of an Irreversible Inhibitor of CDK2” (Chemistry & Biology, 2015)
